Assay results from patent publication US20190224202A1, “STABLE LIQUID FORMULATIONS OF PEMETREXED” (LEIUTIS PHARMACEUTICALS PVT. LTD., priority 2015, published 2019).

Tests used:
[1] = Solubility study of Pemetrexed diacid in various amino acids in water; assay type: physicochemical; settings: 25° C.
Method: Solubility studies of Pemetrexed were performed with various amino acids alone and in combination with other excipients in water at 25° C. to check the solubility.

[2] = Solubility of Pemetrexed diacid in water (statement); assay type: physicochemical

Description (solubility study) ([1]; Pemetrexed diacid 50 mg, Arginine 116 mg, Water 1 ml): Clear
Description (solubility study) ([1]; Pemetrexed diacid 50 mg, Arginine 133 mg, Water 1 ml): Clear
Description (solubility study) ([1]; Pemetrexed diacid 50 mg, Arginine 166 mg, Water 1 ml): Clear
Description (solubility study) ([1]; Pemetrexed diacid 100 mg, Histidine 100 mg, Glycine 50 mg, Ammonium acetate 100 mg, Sucrose 50 mg, Water 2.5 ml): Clear
Description (solubility study) ([1]; Pemetrexed diacid 100 mg, Histidine 100 mg, Glycine 50 mg, Ammonium acetate 100 mg, Water 2.5 ml): Clear
Description (solubility study) ([1]; Pemetrexed diacid 100 mg, Histidine 100 mg, Glycine 100 mg, Ammonium acetate 100 mg, Sucrose 50 mg, Water 2.5 ml): Clear
Description (solubility study) ([1]; Pemetrexed diacid 100 mg, Histidine 100 mg, Glycine 100 mg, Ammonium acetate 100 mg, Water 2.5 ml): Clear
Description (solubility study) ([1]; Pemetrexed diacid 100 mg, Histidine 100 mg, Glycine 100 mg, Sucrose 50 mg, Water 2.5 ml): Clear
Description (solubility study) ([1]; Pemetrexed diacid 100 mg, Histidine 100 mg, Glycine 100 mg, Water 2.5 ml): Clear
Description (solubility study) ([1]; Pemetrexed diacid 100 mg, Histidine 100 mg, Glycine 200 mg, Ammonium acetate 100 mg, Sucrose 50 mg, Water 2.5 ml): Clear
Description (solubility study) ([1]; Pemetrexed diacid 100 mg, Histidine 100 mg, Glycine 200 mg, Ammonium acetate 100 mg, Water 2.5 ml): Clear
Solubility in water [2]: practically insoluble
Compound: Nc1nc2[nH]cc(CCc3ccc(C(=O)N[C@@H](CCC(=O)O)C(=O)O)cc3)c2c(=O)[nH]1 [Pemetrexed diacid, N-{4-[2-(2-Amino-4-oxo-4,7-dihydro-1H-pyrrolo[2,3-d]pyrimidin-5-yl)ethyl]benzoyl}-L-glutamic acid]
